Key:
[1] = target: Human Plasminogen (Homo sapiens, UniProt P00747); experiment: Coupled in vitro fibrinolytic assay (fibrin clot lysis, absorbance at 405 nm); type: biochemical; conditions: for Potency TXA = 100: relative to TXA = 100
Description: The principles and procedures for these assays are as follows. • a) The coupled enzyme reactions in these fibrinolytic assays The assays are constituted of four principal reactions. These are: • (a) The thrombin catalyzed conversion of fibrinogen to the insoluble fibrin clot. Soluble human fibrinogen is a constituent of these assays. The assays are initiated by the addition of human Thrombin, causing the known partial proteolysis of fibrinogen to generate fibrin, which polymerizes to yield an insoluble, opaque “clot”. This is not the same as a fibrin clot obtained physiologically, as it lacks numerous attributes of a physiological clot. […] It is known to bind with a very high affinity to insoluble polymerized fibrin, while it has a much weaker affinity for Fibrinogen. […] All constituents are prepared at appropriate higher stock concentrations from which aliquots are taken and mixed to a final volume of 400 μliters. Included ingredients and their final (assay) concentration are: […] The plates are placed in the plate reader sample compartment maintained at 37°. Assays are conducted with or without pre incubating the fibrinolytic inhibitors with the protein(s) of interest overnight. These two protocols are as follows: • (a) Experiments without pre-incubation: These assays are constituted as follows: […] The assay solutions are mixed & stirred, and the micro titer plate placed in the plate reader. Assays are initiated by delivering a solution (20 μliters) containing Thrombin and either Urokinase or TPA. […] Following pre incubation, the assay solutions are warmed to 37° in the plate reader, and the assays carried out as in (a), above, being initiated with the addition of Thrombin and TPA or Urokinase. The role of Antifibrinolytics in slowing clot dissolution is illustrated in the FIGURE, which illustrates the type of data obtained from the coupled Fribrinolysis Assays described above in Protocols 3(a) and 3(b). […] This represents the formation of fibrin in the assays. […] As a result, an exponential decay in the amount of fibrin present in the assays is observed. This process is illustrated above over a 10 to 30 minute period in control assays, in the absence of antifibrinolytic compounds. As a rough approximation, these can be considered as two sequential exponential processes—the first, formation of fibrin, or the clot, preceding the second—clot breakdown or the fibrinolytic process. A rough measure of the efficacy of fibrinolytic inhibitors, as determined in these coupled assays, is the half-life of the pseudo exponential decline in the optical density of the assay mixtures in the second portion of the reaction. A more rigorous measure of the effectiveness of the compounds to inhibit fibrinolysis, and, by inference, physiological thrombolytic processes, can be obtained by recording the observed fibrinolytic half-lives as a function of the fibrinolytic inhibitor concentration.

[2] = test system: Kringles; experiment: Ability to substitute for EACA/TXA in binding to Kringles; conditions: as determined by the applicant
Description: The D-configuration is preferred in the terminal amino acid in order to protect these dipeptides from peptidases.

[3] = Compounds Preincubated with Plasminogen and Fibrinogen
[4] = Compounds Preincubated with Plasminogen and Fibrinogen, relative to control without inhibitor
[5] = No Preincubation, fibrin half life relative to control without inhibitor

Chain of Human Plasminogen (P00747 20-810 limits assumed): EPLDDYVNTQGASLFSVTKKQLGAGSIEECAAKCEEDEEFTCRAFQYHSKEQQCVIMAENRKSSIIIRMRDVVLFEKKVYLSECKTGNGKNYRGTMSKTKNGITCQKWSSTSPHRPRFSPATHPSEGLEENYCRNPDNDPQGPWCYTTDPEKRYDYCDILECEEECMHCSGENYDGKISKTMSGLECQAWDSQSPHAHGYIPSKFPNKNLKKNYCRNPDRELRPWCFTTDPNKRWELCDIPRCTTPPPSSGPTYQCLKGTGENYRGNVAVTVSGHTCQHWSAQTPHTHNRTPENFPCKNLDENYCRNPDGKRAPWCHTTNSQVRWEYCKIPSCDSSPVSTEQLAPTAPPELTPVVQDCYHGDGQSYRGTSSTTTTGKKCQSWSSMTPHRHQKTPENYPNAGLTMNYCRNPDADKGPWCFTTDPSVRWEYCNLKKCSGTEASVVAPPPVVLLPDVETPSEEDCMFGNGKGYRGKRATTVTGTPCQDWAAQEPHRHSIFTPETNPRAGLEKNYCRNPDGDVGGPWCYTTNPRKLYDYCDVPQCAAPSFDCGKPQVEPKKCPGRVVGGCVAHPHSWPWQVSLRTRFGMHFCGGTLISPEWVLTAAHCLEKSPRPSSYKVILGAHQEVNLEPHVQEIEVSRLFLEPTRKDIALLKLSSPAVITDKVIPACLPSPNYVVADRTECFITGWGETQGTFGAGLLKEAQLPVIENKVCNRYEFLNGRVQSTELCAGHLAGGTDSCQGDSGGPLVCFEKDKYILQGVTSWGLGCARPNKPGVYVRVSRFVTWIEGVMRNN

Row | Structure (SMILES) | Inhibition Percent [1, 3] [%] | Potency TXA = 100 [1, 3] | Percent Of Control [1, 4] [%] | Inhibition Percent ([1]; No Preincubation) [%] | Percent Of Control [1, 5] [%] | Potency TXA = 100 ([1]; No Preincubation) | ability to substitute for EACA/TXA [2] | anti-fibrinolytic effect compared with ACA or TXA (in words) [1]
1 | Cn1cncc1C[C@H](NC(=O)CCN)C(=O)O [Anserine] | – | – | – | – | – | – | substitute for EACA/TXA | –
2 | NCCCCCC(=O)O [ACA, 6-aminohexanoic acid] | 41.8 | 52 | 172 | 37.5 | 160 | 53 | – | –
3 | NCCC(=O)N[C@@H](Cc1c[nH]cn1)C(=O)O [Carnosine, β-Alanyl histidine] | – | – | – | – | – | – | substitute for EACA/TXA | –

More lines, main results first:

Row | Inhibition Percent [1, 3] [%] | Potency TXA = 100 [1, 3] | Percent Of Control [1, 4] [%] | Inhibition Percent ([1]; No Preincubation) [%] | Percent Of Control [1, 5] [%] | Potency TXA = 100 ([1]; No Preincubation) | ability to substitute for EACA/TXA [2] | Structure (SMILES) | anti-fibrinolytic effect compared with ACA or TXA (in words) [1]
4 | 88.5 | 264 | 870 | 70.0 | 333 | 111 | – | C[S+](C)CCCCCC(=O)O [ACA_S, 6-(S,S dimethylthio) Hexanoic acid sultane] | –
5 | 69.7 | 100 | 329 | 66.6 | 300 | 100 | – | NC[C@H]1CC[C@H](C(=O)O)CC1 [TXA, trans-4-(aminomethyl)cyclohexanecarboxylic acid] | –
6 | 90.6 | 321 | – | 71.9 | 356 | 119 | – | C[S+](C)C[C@H]1CC[C@H](C(=O)O)CC1.[Cl-] [TXA_S, trans-(4-dimethylthiomethyl) Cyclohexane-1-carboxylic acid sulfonium chloride] | functions as well as TXA in inhibiting fibrinolysis
